Test results as given in the METLIN SMRT retention time set (Domingo-Almenara et al. 2019).

Assay: gradient 5% acetonitrile 3 min, to 50% in 2 min, to 85% in 15 min, held 3 min, 100 µL/min
Settings: column: Zorbax Extend-C18 2.1 x 50 mm; eluents: water / acetonitrile, 0.1% formic acid
Outline: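 The mobile phases were water and acetonitrile, each with 0.1% formic acid, pumped at 100 μL/min through a Zorbax Extend-C18 column (2.1 × 50 mm, 1.8 μm). Pure standards were injected as mixtures of ~100 molecules and detected by a quadrupole time-of-flight mass spectrometer in positive and negative ionization mode. Retention time came from computationally picked adduct peaks, each inspected by hand.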

In order of rising RP-LC retention time:
1. Cc1oc(-c2[nH]ncc2C(=O)N2CCCC2)cc1S(=O)(=O)N1CCN(C)CC1  574 s
2. Cc1oc(-c2[nH]ncc2C(=O)N(C)C)cc1S(=O)(=O)N1CCN(CC(C)C)CC1  580 s
3. CCc1nccn1Cc1noc(-c2cccs2)n1  593 s
4. O=C(NCCSc1ncc(-c2ccccc2)[nH]1)NCc1cccs1  596 s
5. Cc1cnc(C(=O)N2CCOCCNC(=O)[C@@H]3CCC[C@@H]32)cn1  599 s
6. COc1ccccc1NC(=O)N1CCN(C2=CC3=NC(C)CN3C=N2)CC1 (centres undefined)  603 s
7. CC(=O)Nc1ccc(S(=O)(=O)N=S(C)C)cc1  608 s
8. CN1C(=O)[C@H]2CN(Cc3cn[nH]c3-c3cccc(Br)c3)C[C@H]2C1=O  612 s
9. CCOC(=O)N1CCN(c2cc(C(=O)O)c3cc(NC(=O)c4ccccc4F)ccc3n2)CC1  628 s
10. Cc1ccc(CNC(=O)CCNc2c(-c3ccccc3C)nc3cnccn23)o1  631 s
11. O=C(c1cn(-c2cc(N3CCSCC3)ncn2)cn1)N1CCN(C2CCCCC2)CC1  635 s
12. CCc1nc2c(c(=O)n1CC(=O)NC1CCCCC1)CN(Cc1ccccc1)CC2  652 s
13. COc1ccc(C(=O)N2CCC(n3c(-c4ccoc4)nc4cccnc43)C2)cc1 (centres undefined)  659 s
14. Cc1cc(=O)n(CC(=O)Nc2ccc(Br)cc2)c(N2CCCC2)n1  666 s
15. Cc1cc(=O)n(CC(=O)NCc2cccs2)c(N(C)Cc2ccccc2)n1  698 s
16. COc1cc(C)c(C)cc1S(=O)(=O)NCC1(CO)CC1  704 s
17. CCOC(=O)C1CCN(c2ncc(C(=O)Nc3ccccc3)c(N)n2)CC1  705 s
18. COc1cccc(CNC(=O)N2CCCC2c2cc(C)no2)c1 (centres undefined)  706 s
19. Cc1cccc(-c2noc(-c3ccc(N4CCN(C)CC4)nc3)n2)c1  708 s
20. Cc1cc(NCC2CCCO2)n2nc(-c3ccc(Cl)cc3)c(C)c2n1 (centres undefined)  723 s
21. COc1ccc(Cl)cc1NC(=O)CCc1c(-c2ccc(F)cc2)nc2ccccn12  724 s
22. CC(NC(=O)C1CCN(Cc2cn(C)c3ccc(Cl)cc23)CC1)c1ccccc1 (centres undefined)  727 s
23. O=C(NCCCc1ccccc1)C1CCN(c2nnc3ccc(Cl)cn23)CC1  760 s
24. Cc1cc(N2CCN(S(=O)(=O)c3cc(F)ccc3C)CC2)nc(N2CCCC2)n1  783 s
25. Cc1ccc(-n2nc3c(=O)n(CCCC(=O)NC4CCCC4)nc(C)c3c2C)cc1  797 s
26. CC(C)NC(=O)Cn1c(=O)c2cnc(-c3ccccc3)nc2n(C)c1=O  802 s
27. Cc1ccc(CNC(=O)C2(C)CN(S(C)(=O)=O)CC(=O)N2c2ccccc2F)cc1 (centres undefined)  804 s
28. Cc1cc2c(cc1C)[n+](=O)c(C(=O)/C=C/c1ccccc1[N+](=O)[O-])c(C)n2[O-]  806 s
29. Cc1ccccc1S(=O)(=O)N1CCC(CCC(=O)O)CC1  807 s
30. O=C(C1CCCCC1)N1CCN(c2nnc3ccc(C(F)(F)F)cn23)CC1  817 s
31. O=C(C1CC1)N1[C@H]2CC[C@@H]1c1cnc(-c3ccccc3)nc1C2  817 s
32. Cc1cccc(N2C(=O)CN(CCc3ccccc3)[C@H]3CS(=O)(=O)C[C@H]32)c1  826 s
33. CCOC(=O)C1CCCN(C(=O)C2CCN(S(=O)(=O)c3ccc4c(ccn4CC)c3)CC2)C1 (centres undefined)  849 s
34. COc1ccccc1C1=NN(C(C)=O)C(C)(c2cccc(OC(C)=O)c2)O1 (centres undefined)  852 s
35. COC(=O)c1ccc(C(=O)OC)c(NC(=O)CSc2nc(C)cc(C)n2)c1  852 s
36. Cc1csc(-c2ccc(N3CCN(C(=O)c4cc5ccccc5[nH]4)CC3)nc2)n1  852 s
37. CC(=O)Nc1ccc(S(=O)(=O)N2CC=C(c3cn(C(C)C)c4ncccc34)CC2)cc1  854 s
38. CCc1noc(NC(C)=O)c1-c1ccc(C)c(S(=O)(=O)Nc2cc(OC)cc(OC)c2)c1  854 s
39. O=C(CCn1nnc2cc(-c3noc(-c4ccccc4F)n3)ccc21)N1CCCC1  865 s
40. O=C(Cn1nc2c(N3CCc4ccccc4C3)nccn2c1=O)NC1CCCCC1  865 s
41. Cc1cccc(Nc2nnc(CC(=O)Nc3cc(F)ccc3Cl)s2)c1  872 s
42. O=C(CN1C(=O)NC(c2ccc(Cl)cc2)C2=C1COC2=O)Nc1ccc(Br)cc1F (centres undefined)  877 s
43. O=C(Cn1ccn2nc(-c3ccc(F)cc3)c(CO)c2c1=O)Nc1cc(F)cc(F)c1  880 s
44. COc1ccc(Cc2nc(-c3ccc4c(c3)nc(C)c(=O)n4C)no2)cc1OC  894 s
45. COc1cccc2c1[C@@H]1CN(CCCCN3C(=O)NC4C(SC5NCC(c6ccccc6)NC54)C3=O)C[C@@H]1CO2 (some centres undefined)  902 s
46. CC(C)NC(=O)Cn1nc2c3cc(-c4ccc(C(C)C)cc4)nn3ccn2c1=O  911 s
47. CCOc1cc(=O)n2c(c1C(=O)OCc1ccccc1F)CCCCC2  914 s
48. CC(C)c1ccc(-n2nc(N3CCN(C(=O)c4ccc5c(c4)OCO5)CC3)ccc2=O)cc1  914 s
49. COc1ccc(NC(=O)C2(C)Oc3cccnc3N(C(C)C)C2=O)cc1 (centres undefined)  918 s
50. O=C1CCc2cc(NS(=O)(=O)Cc3cccc(Cl)c3)ccc2N1  938 s
51. Cc1ccc(C)c(NC(=O)C2CCN(S(C)(=O)=O)c3ccccc3O2)c1 (centres undefined)  943 s
52. Cc1ccc(NC(=O)C(C)Oc2ccc(F)cc2)cc1C (centres undefined)  956 s
53. O=C(C1CCN(S(=O)(=O)c2ccc(-c3noc(Cc4ccc(F)cc4)n3)cc2)CC1)N1CCCC1  971 s
54. CCC1Oc2ccc(S(=O)(=O)N3CCC(C(=O)NC4CCCCCCC4)CC3)cc2NC1=O (centres undefined)  977 s
55. CCOc1ccccc1NC(=O)CN1C(=O)CCc2cc(Br)ccc21  1000 s
56. CCc1nc(-c2csc(S(=O)(=O)N3CCC(C(=O)Nc4ccc(F)cc4Cl)CC3)c2)no1  1040 s
57. Cc1cc(C)cc(NC(=O)Cn2c(C)nc3c(sc4nc(-c5ccccc5)ccc43)c2=O)c1  1050 s
58. CS(=O)(=O)N1CCC(C(=O)NC2CCCCCCC2)Oc2ccc(Cl)cc21 (centres undefined)  1070 s
59. Cc1nn(-c2nc(-c3ccc(Cl)cc3)cs2)c(C)c1CC(=O)NC(C)C  1080 s
60. Cc1nc(-c2ccc(C(F)(F)F)cc2)ncc1C(=O)NCCc1cccs1  1120 s
61. COc1ccc2[nH]c3c(c2c1)CCN1C(=O)N(c2ccc(Cl)c(Cl)c2)C(=O)C31C (centres undefined)  1120 s
62. CC1=NS(=O)(=O)N(Cc2ccccc2)C=C1C(=O)OCc1ccccc1Cl  1160 s
63. Cc1cc(C(=O)Nc2nc(-c3ccccc3)c(-c3ccccc3)s2)no1  1180 s
64. O=C(Nc1ccc(F)cc1F)c1c(O)c2cccnc2n(-c2ccccc2)c1=O  1250 s
